Assay results as given in PubChem BioAssay AID2060912 (Molecular Pharmacology Branch, DTP, NCI, 2025).

Test system: HUVEC/MSC spheroids viability
Experiment: Human HUVEC/MSC cell line growth inhibition [KRAS2];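 on viability, T/C: percent of DMSO vehicle control luminescence so 100% = untreated viability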
Details: for viability, T/C: stronger effect = lower value
Method in brief: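 Endothelial cells (HUVEC) plus mesenchymal stem cells, cultured at 37 °C/5% CO2 and assembled into spheroids without cancer cells, served as a stromal control. Drug pairs and single agents spanned half-log ranges anchored to clinical Cmax.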

[1] = curve of first compound, second compound 0.0316 µM
[2] = curve of first compound, second compound 0.1 µM
[3] = curve of first compound, second compound 0.316 µM
[4] = curve of first compound, second compound 1 µM
[5] = curve of first compound, second compound 3.16 µM
[6] = curve of first compound, second compound 10 µM

## CC(=O)OC12COC1CC(O)C1(C)C(=O)C(O)C3=C(C)C(OC(=O)C(O)C(NC(=O)OC(C)(C)C)c4ccccc4)CC(O)(C(OC(=O)c4ccccc4)C21)C3(C)C (configuration not stated) + C=CC(=O)N1CCN(c2nc(=O)n(-c3c(C)ccnc3C(C)C)c3nc(-c4c(O)cccc4F)c(F)cc23)C(C)C1
[1]
  IC50: > 3 µM
[2]
  IC50: > 3 µM
[3]
  IC50: > 3 µM
[4]
  IC50: > 3 µM
[5]
  IC50: > 3 µM
[6]
  IC50: > 3 µM
Second compound 0.0316 µM, first compound 0.00949 µM
  viability, T/C: 57.6%
Second compound 0.0316 µM, first compound 0.03 µM
  viability, T/C: 67.8%
Second compound 0.0316 µM, first compound 0.0949 µM
  viability, T/C: 47.2%
Second compound 0.0316 µM, first compound 0.3 µM
  viability, T/C: 41.4%
Second compound 0.0316 µM, first compound 0.949 µM
  viability, T/C: 63%
Second compound 0.0316 µM, first compound 3 µM
  viability, T/C: 55.2%
Second compound 0.1 µM, first compound 0.00949 µM
  viability, T/C: 65.5%
Second compound 0.1 µM, first compound 0.03 µM
  viability, T/C: 52.8%
Second compound 0.1 µM, first compound 0.0949 µM
  viability, T/C: 57.4%
Second compound 0.1 µM, first compound 0.3 µM
  viability, T/C: 54.1%
Second compound 0.1 µM, first compound 0.949 µM
  viability, T/C: 57.3%
Second compound 0.1 µM, first compound 3 µM
  viability, T/C: 63.7%
Second compound 0.316 µM, first compound 0.00949 µM
  viability, T/C: 54.5%
Second compound 0.316 µM, first compound 0.03 µM
  viability, T/C: 58.9%
Second compound 0.316 µM, first compound 0.0949 µM
  viability, T/C: 61.6%
Second compound 0.316 µM, first compound 0.3 µM
  viability, T/C: 57.5%
Second compound 0.316 µM, first compound 0.949 µM
  viability, T/C: 65%
Second compound 0.316 µM, first compound 3 µM
  viability, T/C: 70.3%
Second compound 1 µM, first compound 0.00949 µM
  viability, T/C: 57.1%
Second compound 1 µM, first compound 0.03 µM
  viability, T/C: 61.4%
Second compound 1 µM, first compound 0.0949 µM
  viability, T/C: 59.2%
Second compound 1 µM, first compound 0.3 µM
  viability, T/C: 59.8%
Second compound 1 µM, first compound 0.949 µM
  viability, T/C: 62.9%
Second compound 1 µM, first compound 3 µM
  viability, T/C: 67.9%
Second compound 3.16 µM, first compound 0.00949 µM
  viability, T/C: 66%
Second compound 3.16 µM, first compound 0.03 µM
  viability, T/C: 82.4%
Second compound 3.16 µM, first compound 0.0949 µM
  viability, T/C: 64.8%
Second compound 3.16 µM, first compound 0.3 µM
  viability, T/C: 84.4%
Second compound 3.16 µM, first compound 0.949 µM
  viability, T/C: 83.4%
Second compound 3.16 µM, first compound 3 µM
  viability, T/C: 101%
Second compound 10 µM, first compound 0.00949 µM
  viability, T/C: 100%
Second compound 10 µM, first compound 0.03 µM
  viability, T/C: 113%
Second compound 10 µM, first compound 0.0949 µM
  viability, T/C: 122%
Second compound 10 µM, first compound 0.3 µM
  viability, T/C: 113%
Second compound 10 µM, first compound 0.949 µM
  viability, T/C: 111%
Second compound 10 µM, first compound 3 µM
  viability, T/C: 124%

## CCNC(=O)CC1N=C(c2ccc(Cl)cc2)c2cc(OC)ccc2-n2c(C)nnc21 (configuration not stated)
Compound 0.0316 µM
  viability, T/C: 87.2% [middle of 5 runs]
Compound 0.1 µM
  viability, T/C: 86.6% [middle of 5 runs]
Curve of compound
  IC50: > 10 µM

## CN(C)C/C=C/C(=O)Nc1cc2c(Nc3ccc(F)c(Cl)c3)ncnc2cc1O[C@H]1CCOC1 + CNCc1ccccc1-c1csc(C(C)Nc2nc(C)nc3cc(OC)c(OC)cc23)c1
[1]
  IC50: > 0.1 µM
[2]
  IC50: > 0.1 µM
[3]
  IC50: > 0.1 µM
[4]
  IC50: > 0.1 µM
[5]
  IC50: > 0.1 µM
[6]
  IC50: < 0.000316 µM
Second compound 0.0316 µM, first compound 0.000316 µM
  viability, T/C: 100%
Second compound 0.0316 µM, first compound 0.001 µM
  viability, T/C: 89.5%
Second compound 0.0316 µM, first compound 0.00316 µM
  viability, T/C: 90.5%
Second compound 0.0316 µM, first compound 0.01 µM
  viability, T/C: 91.2%
Second compound 0.0316 µM, first compound 0.0316 µM
  viability, T/C: 74%
Second compound 0.0316 µM, first compound 0.1 µM
  viability, T/C: 86%
Second compound 0.1 µM, first compound 0.000316 µM
  viability, T/C: 89.7%
Second compound 0.1 µM, first compound 0.001 µM
  viability, T/C: 105%
Second compound 0.1 µM, first compound 0.00316 µM
  viability, T/C: 77.4%
Second compound 0.1 µM, first compound 0.01 µM
  viability, T/C: 76.7%
Second compound 0.1 µM, first compound 0.0316 µM
  viability, T/C: 89.5%
Second compound 0.1 µM, first compound 0.1 µM
  viability, T/C: 74.8%
Second compound 0.316 µM, first compound 0.000316 µM
  viability, T/C: 85.2%
Second compound 0.316 µM, first compound 0.001 µM
  viability, T/C: 93.2%
Second compound 0.316 µM, first compound 0.00316 µM
  viability, T/C: 72.5%
Second compound 0.316 µM, first compound 0.01 µM
  viability, T/C: 78.1%
Second compound 0.316 µM, first compound 0.0316 µM
  viability, T/C: 96.6%
Second compound 0.316 µM, first compound 0.1 µM
  viability, T/C: 68.8%
Second compound 1 µM, first compound 0.000316 µM
  viability, T/C: 78.3%
Second compound 1 µM, first compound 0.001 µM
  viability, T/C: 73.7%
Second compound 1 µM, first compound 0.00316 µM
  viability, T/C: 86.5%
Second compound 1 µM, first compound 0.01 µM
  viability, T/C: 73.5%
Second compound 1 µM, first compound 0.0316 µM
  viability, T/C: 72.7%
Second compound 1 µM, first compound 0.1 µM
  viability, T/C: 59.8%
Second compound 3.16 µM, first compound 0.000316 µM
  viability, T/C: 89.2%
Second compound 3.16 µM, first compound 0.001 µM
  viability, T/C: 94.4%
Second compound 3.16 µM, first compound 0.00316 µM
  viability, T/C: 80.4%
Second compound 3.16 µM, first compound 0.01 µM
  viability, T/C: 89.5%
Second compound 3.16 µM, first compound 0.0316 µM
  viability, T/C: 65.2%
Second compound 3.16 µM, first compound 0.1 µM
  viability, T/C: 84.4%
Second compound 10 µM, first compound 0.000316 µM
  viability, T/C: 0.33%
Second compound 10 µM, first compound 0.001 µM
  viability, T/C: 0.35%
Second compound 10 µM, first compound 0.00316 µM
  viability, T/C: 0.37%
Second compound 10 µM, first compound 0.01 µM
  viability, T/C: 0.33%
Second compound 10 µM, first compound 0.0316 µM
  viability, T/C: 0.37%
Second compound 10 µM, first compound 0.1 µM
  viability, T/C: 0.65%
